# Measured values as given in the supplement of paper PMC12076712.
# Assays:
# Experiment in all cases: pIC50, kinobeads binding competition
# [1] = target: UniProt Q9HBH9
# Method in brief: (§1)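 To obtain pIC50, fold changes versus vehicle were fitted to logistic dose-response curves (R drc package) across biological duplicates. Protein binding to Kinobeads was quantified by TMT10 LC-MS/MS of digested bead-bound proteins. Treatments used nine concentrations with a top of 30 μM, applied to live Jurkat cells in 1:4 steps for 60 min at 37 °C before lysis, or to Jurkat lysate or a 1:1:1:1 HEK293/K-562/HepG2/placenta lysate mix in 1:5 steps for 60 min at 4 °C.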
# [2] = target: CDK9 (UniProt P50750)
# Method in brief: as §1
# [3] = target: UniProt Q9BVS4
# Method in brief: as §1
# [4] = target: T1, JAK3 (UniProt P52333)
# T1 sequence (whole entry): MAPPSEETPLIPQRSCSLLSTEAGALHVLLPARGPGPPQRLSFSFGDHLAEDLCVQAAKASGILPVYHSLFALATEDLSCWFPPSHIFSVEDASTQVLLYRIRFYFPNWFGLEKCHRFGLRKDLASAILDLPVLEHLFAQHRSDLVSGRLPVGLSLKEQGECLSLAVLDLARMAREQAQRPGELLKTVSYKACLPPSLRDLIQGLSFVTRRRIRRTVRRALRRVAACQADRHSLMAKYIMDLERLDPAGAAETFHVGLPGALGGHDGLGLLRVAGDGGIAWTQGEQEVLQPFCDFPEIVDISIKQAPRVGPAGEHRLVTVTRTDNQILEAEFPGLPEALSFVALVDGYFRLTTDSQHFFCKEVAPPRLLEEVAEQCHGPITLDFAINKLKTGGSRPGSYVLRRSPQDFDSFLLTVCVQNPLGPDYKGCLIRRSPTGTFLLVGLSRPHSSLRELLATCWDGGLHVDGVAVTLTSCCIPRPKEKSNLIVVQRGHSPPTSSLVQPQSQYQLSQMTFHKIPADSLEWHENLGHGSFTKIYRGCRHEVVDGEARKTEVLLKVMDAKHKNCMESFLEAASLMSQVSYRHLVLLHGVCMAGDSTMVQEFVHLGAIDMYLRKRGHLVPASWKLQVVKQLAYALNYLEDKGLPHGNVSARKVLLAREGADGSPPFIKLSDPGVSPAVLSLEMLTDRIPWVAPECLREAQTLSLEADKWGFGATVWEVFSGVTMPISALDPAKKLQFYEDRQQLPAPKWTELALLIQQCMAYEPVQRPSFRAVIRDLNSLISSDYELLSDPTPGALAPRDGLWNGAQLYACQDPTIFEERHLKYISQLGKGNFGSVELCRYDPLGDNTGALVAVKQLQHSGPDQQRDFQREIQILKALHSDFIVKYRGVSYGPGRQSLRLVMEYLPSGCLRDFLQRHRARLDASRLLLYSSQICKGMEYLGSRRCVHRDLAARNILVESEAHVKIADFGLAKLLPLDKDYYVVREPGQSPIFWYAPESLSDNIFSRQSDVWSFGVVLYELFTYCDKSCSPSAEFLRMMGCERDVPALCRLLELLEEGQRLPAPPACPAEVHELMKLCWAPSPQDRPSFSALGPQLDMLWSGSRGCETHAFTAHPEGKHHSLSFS
# Method in brief: as §1
# [5] = target: TESK2 (UniProt Q96S53)
# Method in brief: as §1
# [6] = target: T2, UniProt Q9Y2U5
# T2 sequence (whole entry): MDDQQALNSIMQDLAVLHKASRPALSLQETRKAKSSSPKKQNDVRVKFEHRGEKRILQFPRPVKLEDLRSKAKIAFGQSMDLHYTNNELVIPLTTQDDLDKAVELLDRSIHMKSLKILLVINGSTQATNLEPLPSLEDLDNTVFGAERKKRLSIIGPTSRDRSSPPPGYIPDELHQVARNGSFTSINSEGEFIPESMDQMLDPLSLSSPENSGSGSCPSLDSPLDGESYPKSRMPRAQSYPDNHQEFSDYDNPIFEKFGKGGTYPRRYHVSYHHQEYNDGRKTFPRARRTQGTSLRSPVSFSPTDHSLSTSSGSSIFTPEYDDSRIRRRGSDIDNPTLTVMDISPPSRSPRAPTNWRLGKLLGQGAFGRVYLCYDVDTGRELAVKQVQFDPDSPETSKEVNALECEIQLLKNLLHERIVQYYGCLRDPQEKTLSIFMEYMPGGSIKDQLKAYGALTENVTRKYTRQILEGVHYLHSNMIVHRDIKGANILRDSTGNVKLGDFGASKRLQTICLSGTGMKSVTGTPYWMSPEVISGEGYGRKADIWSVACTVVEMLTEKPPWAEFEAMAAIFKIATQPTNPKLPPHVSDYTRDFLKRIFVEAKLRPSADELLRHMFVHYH
# Method in brief: as §1
# [7] = target: T3, TNK1 (UniProt Q13470); settings: cell material: Lysate mix
# T3 sequence (whole entry): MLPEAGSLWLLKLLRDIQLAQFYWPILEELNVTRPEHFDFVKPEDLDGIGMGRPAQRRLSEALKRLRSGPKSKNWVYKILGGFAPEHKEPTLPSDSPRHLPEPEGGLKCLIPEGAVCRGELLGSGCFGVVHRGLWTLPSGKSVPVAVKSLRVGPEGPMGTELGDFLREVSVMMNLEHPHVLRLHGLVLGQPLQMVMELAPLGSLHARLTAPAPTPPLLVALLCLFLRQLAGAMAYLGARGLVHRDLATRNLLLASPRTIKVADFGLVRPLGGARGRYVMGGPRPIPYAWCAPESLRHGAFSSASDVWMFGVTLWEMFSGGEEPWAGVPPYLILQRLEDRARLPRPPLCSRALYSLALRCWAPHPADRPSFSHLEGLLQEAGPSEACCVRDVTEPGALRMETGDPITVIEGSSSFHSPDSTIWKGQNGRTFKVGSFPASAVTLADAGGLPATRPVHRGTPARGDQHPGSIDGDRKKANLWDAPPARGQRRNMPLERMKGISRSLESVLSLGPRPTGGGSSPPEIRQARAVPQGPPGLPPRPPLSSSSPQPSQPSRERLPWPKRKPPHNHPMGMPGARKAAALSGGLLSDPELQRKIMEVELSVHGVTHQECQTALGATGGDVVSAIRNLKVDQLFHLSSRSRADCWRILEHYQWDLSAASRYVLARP
# Method in brief: as §1
# [8] = target: PRKCQ (UniProt Q04759)
# Method in brief: as §1
# [9] = target: BRAF (UniProt P15056)
# Method in brief: as §1
# [10] = target: TAOK3 (UniProt Q9H2K8)
# Method in brief: as §1
# CDK9, sequence (P50750 whole entry): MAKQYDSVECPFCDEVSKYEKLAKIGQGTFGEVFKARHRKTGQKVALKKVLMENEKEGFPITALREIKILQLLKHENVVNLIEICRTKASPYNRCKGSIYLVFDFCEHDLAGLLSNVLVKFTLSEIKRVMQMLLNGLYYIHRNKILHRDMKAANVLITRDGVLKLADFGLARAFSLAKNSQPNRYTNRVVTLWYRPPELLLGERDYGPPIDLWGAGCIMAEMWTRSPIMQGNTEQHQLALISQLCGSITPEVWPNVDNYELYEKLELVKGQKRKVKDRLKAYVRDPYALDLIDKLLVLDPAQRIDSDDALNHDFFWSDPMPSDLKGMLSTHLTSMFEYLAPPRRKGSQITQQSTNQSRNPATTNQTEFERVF
# BRAF, sequence (P15056 whole entry): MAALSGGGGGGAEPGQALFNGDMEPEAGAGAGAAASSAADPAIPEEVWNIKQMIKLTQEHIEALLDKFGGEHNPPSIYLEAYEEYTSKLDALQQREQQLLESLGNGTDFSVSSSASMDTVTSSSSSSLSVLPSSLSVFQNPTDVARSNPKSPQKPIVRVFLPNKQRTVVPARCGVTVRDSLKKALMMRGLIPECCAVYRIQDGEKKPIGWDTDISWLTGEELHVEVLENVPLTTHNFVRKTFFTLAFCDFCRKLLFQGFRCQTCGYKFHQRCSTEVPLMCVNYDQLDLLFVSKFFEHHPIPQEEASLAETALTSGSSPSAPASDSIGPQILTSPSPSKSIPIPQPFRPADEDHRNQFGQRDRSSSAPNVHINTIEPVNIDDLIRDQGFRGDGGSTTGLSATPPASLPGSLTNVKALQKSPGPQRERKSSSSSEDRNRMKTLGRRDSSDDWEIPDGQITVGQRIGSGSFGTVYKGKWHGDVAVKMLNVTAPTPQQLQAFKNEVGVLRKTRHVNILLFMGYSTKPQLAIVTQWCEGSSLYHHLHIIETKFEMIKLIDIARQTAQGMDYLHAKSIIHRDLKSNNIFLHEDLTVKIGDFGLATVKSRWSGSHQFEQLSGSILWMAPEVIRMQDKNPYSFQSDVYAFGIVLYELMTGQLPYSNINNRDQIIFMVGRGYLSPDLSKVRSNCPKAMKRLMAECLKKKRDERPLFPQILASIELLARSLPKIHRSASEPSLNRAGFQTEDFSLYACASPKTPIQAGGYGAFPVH
# TESK2, sequence (Q96S53 whole entry, looked up): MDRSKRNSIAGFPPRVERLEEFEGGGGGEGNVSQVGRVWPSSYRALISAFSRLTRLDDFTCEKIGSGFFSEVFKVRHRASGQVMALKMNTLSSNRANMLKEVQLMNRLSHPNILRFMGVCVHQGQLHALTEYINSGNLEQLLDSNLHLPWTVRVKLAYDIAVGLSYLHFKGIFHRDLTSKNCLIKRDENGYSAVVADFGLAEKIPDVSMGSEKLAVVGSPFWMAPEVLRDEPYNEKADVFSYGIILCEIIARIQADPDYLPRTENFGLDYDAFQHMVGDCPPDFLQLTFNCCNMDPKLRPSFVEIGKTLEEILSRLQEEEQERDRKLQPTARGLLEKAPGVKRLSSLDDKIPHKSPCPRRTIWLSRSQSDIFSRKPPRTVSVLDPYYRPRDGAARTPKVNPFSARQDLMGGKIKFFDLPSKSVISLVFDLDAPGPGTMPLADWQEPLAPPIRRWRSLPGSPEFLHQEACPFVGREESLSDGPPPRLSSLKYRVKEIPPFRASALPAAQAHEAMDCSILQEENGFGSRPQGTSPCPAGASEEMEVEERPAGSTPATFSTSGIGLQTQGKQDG
# TAOK3, sequence (Q9H2K8 whole entry, looked up): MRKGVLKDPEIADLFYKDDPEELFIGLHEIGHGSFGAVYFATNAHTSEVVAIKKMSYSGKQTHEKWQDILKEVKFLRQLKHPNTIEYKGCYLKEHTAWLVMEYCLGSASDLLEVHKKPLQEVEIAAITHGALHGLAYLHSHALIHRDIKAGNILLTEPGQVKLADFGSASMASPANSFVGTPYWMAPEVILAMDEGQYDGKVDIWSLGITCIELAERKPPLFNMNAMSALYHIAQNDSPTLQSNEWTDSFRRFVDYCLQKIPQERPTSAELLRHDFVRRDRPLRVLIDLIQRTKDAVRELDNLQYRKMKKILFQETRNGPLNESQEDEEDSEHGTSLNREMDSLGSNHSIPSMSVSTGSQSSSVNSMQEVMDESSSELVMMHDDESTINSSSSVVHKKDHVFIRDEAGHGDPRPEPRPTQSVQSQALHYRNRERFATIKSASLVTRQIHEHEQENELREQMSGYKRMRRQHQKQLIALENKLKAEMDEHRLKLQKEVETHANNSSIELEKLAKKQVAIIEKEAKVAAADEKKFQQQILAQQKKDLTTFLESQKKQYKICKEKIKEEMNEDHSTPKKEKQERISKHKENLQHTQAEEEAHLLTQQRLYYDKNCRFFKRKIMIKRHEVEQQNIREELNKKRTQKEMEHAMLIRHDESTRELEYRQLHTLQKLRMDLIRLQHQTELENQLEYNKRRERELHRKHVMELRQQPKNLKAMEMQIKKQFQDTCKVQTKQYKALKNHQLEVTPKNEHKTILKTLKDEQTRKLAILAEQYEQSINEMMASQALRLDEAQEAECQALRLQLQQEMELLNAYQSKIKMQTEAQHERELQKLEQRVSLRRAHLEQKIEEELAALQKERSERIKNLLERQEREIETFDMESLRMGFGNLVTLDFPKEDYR
# UniProt Q9HBH9, sequence (Q9HBH9 whole entry, looked up): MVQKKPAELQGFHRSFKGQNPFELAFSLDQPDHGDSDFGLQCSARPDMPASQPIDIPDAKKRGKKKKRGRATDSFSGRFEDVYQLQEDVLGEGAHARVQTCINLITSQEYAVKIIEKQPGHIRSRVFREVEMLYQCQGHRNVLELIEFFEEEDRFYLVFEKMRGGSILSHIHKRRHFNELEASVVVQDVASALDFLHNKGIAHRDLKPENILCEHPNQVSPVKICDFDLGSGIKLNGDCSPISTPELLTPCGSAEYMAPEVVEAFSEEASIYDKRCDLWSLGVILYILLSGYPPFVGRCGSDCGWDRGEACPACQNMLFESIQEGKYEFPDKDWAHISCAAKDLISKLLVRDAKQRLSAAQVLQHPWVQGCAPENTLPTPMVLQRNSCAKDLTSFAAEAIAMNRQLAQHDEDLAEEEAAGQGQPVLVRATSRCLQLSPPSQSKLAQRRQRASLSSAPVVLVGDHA
# PRKCQ, sequence (Q04759 whole entry, looked up): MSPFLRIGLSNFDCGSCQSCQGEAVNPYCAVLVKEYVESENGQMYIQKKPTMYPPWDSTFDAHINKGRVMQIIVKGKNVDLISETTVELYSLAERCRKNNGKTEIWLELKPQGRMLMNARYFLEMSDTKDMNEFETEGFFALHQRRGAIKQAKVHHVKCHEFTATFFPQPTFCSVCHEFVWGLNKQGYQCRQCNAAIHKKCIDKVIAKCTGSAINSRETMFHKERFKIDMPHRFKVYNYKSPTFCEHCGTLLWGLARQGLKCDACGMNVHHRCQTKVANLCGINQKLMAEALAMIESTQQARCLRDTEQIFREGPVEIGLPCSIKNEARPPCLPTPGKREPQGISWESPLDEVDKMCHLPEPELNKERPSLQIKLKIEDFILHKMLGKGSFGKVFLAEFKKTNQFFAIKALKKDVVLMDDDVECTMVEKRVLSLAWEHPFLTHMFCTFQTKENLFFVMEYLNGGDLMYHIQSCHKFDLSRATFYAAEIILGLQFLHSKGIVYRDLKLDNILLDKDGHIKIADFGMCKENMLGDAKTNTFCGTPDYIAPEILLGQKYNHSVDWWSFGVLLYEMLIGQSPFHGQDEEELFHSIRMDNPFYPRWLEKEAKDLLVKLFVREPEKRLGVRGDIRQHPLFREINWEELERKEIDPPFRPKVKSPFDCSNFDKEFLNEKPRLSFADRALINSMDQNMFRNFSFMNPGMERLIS
# UniProt Q9BVS4, sequence (Q9BVS4 whole entry, looked up): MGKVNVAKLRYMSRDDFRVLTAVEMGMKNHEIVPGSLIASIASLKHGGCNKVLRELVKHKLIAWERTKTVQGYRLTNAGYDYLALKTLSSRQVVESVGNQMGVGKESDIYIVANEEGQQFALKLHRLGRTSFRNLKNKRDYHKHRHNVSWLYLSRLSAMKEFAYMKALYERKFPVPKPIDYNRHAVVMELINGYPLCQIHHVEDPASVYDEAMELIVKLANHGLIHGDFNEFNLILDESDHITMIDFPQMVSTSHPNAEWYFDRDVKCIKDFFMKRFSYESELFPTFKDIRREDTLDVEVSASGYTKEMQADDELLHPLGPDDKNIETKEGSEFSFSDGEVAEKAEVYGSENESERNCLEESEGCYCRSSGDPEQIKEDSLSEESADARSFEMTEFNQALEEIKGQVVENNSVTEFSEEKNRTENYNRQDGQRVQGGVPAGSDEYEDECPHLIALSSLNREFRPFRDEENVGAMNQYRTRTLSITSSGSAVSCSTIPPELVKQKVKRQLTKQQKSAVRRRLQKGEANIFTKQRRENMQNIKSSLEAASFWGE
Compound,pIC50 ([1]; cell material: Lysate mix),pIC50 ([2]; cell material: Lysate mix),pIC50 ([3]; cell material: Lysate mix),pIC50 ([4]; cell material: Lysate mix),pIC50 ([5]; cell material: Lysate mix),pIC50 ([6]; cell material: Lysate mix),pIC50 [7],pIC50 ([8]; cell material: Lysate mix),pIC50 ([9]; cell material: Lysate mix),pIC50 ([10]; cell material: Lysate mix),pIC50 ([1]; cell material: Jurkat cells),pIC50 ([1]; cell material: Jurkat lysate),pIC50 ([2]; cell material: Jurkat cells),pIC50 ([2]; cell material: Jurkat lysate),pIC50 ([3]; cell material: Jurkat cells),pIC50 ([3]; cell material: Jurkat lysate),pIC50 ([4]; cell material: Jurkat cells),pIC50 ([4]; cell material: Jurkat lysate),pIC50 ([5]; cell material: Jurkat cells),pIC50 ([5]; cell material: Jurkat lysate),pIC50 ([6]; cell material: Jurkat cells),pIC50 ([8]; cell material: Jurkat cells),pIC50 ([8]; cell material: Jurkat lysate),pIC50 ([9]; cell material: Jurkat cells),pIC50 ([9]; cell material: Jurkat lysate),pIC50 ([10]; cell material: Jurkat cells),pIC50 ([10]; cell material: Jurkat lysate)
CCNC(=O)c1cc(Nc2cc(C)[nH]n2)nc(N2CCN(Cc3ccc(S(=O)(=O)F)cc3)CC2)n1,< 4.52,< 4.52,< 4.52,5.89,< 4.52,4.67,7.07,< 4.52,< 4.52,< 4.52,–,–,–,–,–,–,–,–,–,–,–,–,–,–,–,–,–
C#CCNC(=O)c1cc(Nc2cc(C3CC3)[nH]n2)nc(N2CCN(Cc3ccc(S(=O)(=O)F)cc3)CC2)n1,< 4.52,6.16,< 4.52,6.08,< 4.52,5.47,7.34,< 4.52,< 4.52,< 4.52,5.15,< 4.52,6.24,5.81,5.12,< 4.52,5.94,5.42,< 4.52,< 4.52,5.84,5.42,< 4.52,5.36,< 4.52,5.56,< 4.52
C#CCNC(=O)c1cc(Nc2cc(C)[nH]n2)nc(N2CCN(Cc3ccc(S(=O)(=O)F)cc3)CC2)n1,< 4.52,4.84,< 4.52,5.7,< 4.52,4.82,6.23,< 4.52,< 4.52,< 4.52,–,–,–,–,–,–,–,–,–,–,–,–,–,–,–,–,–
